System: 317291-083-R-J1-PDC complex spheroids, viability
Assay: Anticancer human tumor 317291-083-R-J1-PDC patient-derived soft tissue sarcoma cell line growth inhibition [GQUAD]
Conditions: for IC50: curve of first compound; for viability, T/C: stronger effect = lower value
Procedure, shortened: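 Tumor cells were grown as complex spheroids with HUVEC endothelial cells and mesenchymal stem cells as stroma. G-quadruplex stabilizers were combined with targeted agents over half-log dilutions from near the clinical Cmax, or from 10 microM.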

[1] = second compound 0.0316 µM, first compound 0.0316 µM
[2] = second compound 0.0316 µM, first compound 0.316 µM
[3] = second compound 0.1 µM, first compound 0.0316 µM
[4] = second compound 0.1 µM, first compound 0.316 µM
[5] = second compound 0.316 µM, first compound 0.0316 µM
[6] = second compound 0.316 µM, first compound 0.316 µM
[7] = second compound 1 µM, first compound 0.0316 µM
[8] = second compound 1 µM, first compound 0.316 µM
[9] = second compound 3.16 µM, first compound 0.0316 µM
[10] = second compound 3.16 µM, first compound 0.316 µM
[11] = second compound 10 µM, first compound 0.0316 µM
[12] = second compound 10 µM, first compound 0.316 µM
[13] = second compound 0.0316 µM, first compound 0.1 µM
[14] = second compound 0.0316 µM, first compound 1 µM
[15] = second compound 0.0316 µM, first compound 3.16 µM
[16] = second compound 0.0316 µM, first compound 10 µM
[17] = second compound 0.1 µM, first compound 0.1 µM
[18] = second compound 0.1 µM, first compound 1 µM
[19] = second compound 0.1 µM, first compound 3.16 µM
[20] = second compound 0.1 µM, first compound 10 µM
[21] = second compound 0.316 µM, first compound 0.1 µM
[22] = second compound 0.316 µM, first compound 1 µM
[23] = second compound 0.316 µM, first compound 3.16 µM
[24] = second compound 0.316 µM, first compound 10 µM
[25] = second compound 1 µM, first compound 0.1 µM
[26] = second compound 1 µM, first compound 1 µM
[27] = second compound 1 µM, first compound 3.16 µM
[28] = second compound 1 µM, first compound 10 µM
[29] = second compound 3.16 µM, first compound 0.1 µM
[30] = second compound 3.16 µM, first compound 1 µM
[31] = second compound 3.16 µM, first compound 3.16 µM
[32] = second compound 3.16 µM, first compound 10 µM
[33] = second compound 10 µM, first compound 0.1 µM
[34] = second compound 10 µM, first compound 1 µM
[35] = second compound 10 µM, first compound 3.16 µM
[36] = second compound 10 µM, first compound 10 µM
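Further: spheroids exposed to compounds for one week before readout.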
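Wherever viability, T/C is given: percent viability relative to DMSO vehicle wells taken as 100%.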

Compound: Cc1[nH]c2ccccc2c1CCNCc1ccc(/C=C/C(=O)NO)cc1 + CN(C)c1ccc(Nc2c3ccc(NC(=O)CCN4CCCC4)cc3nc3cc(NC(=O)CCN4CCCC4)ccc23)cc1
- IC50 (second compound 0.0316 µM): 0.04 µM
- IC50 (second compound 0.1 µM): 0.0351 µM
- IC50 (second compound 0.316 µM): 0.0197 µM
- IC50 (second compound 1 µM): < 0.000999 µM
- IC50 (second compound 3.16 µM): < 0.000999 µM
- IC50 (second compound 10 µM): < 0.000999 µM
- viability, T/C (second compound 0.0316 µM, first compound 0.000999 µM): 104%
- viability, T/C (second compound 0.0316 µM, first compound 0.00316 µM): 121%
- viability, T/C (second compound 0.0316 µM, first compound 0.00999 µM): 101%
- viability, T/C [1]: 61.3%
- viability, T/C (second compound 0.0316 µM, first compound 0.0999 µM): 8.25%
- viability, T/C [2]: 0.39%
- viability, T/C (second compound 0.1 µM, first compound 0.000999 µM): 119%
- viability, T/C (second compound 0.1 µM, first compound 0.00316 µM): 102%
- viability, T/C (second compound 0.1 µM, first compound 0.00999 µM): 95.4%
- viability, T/C [3]: 56.6%
- viability, T/C (second compound 0.1 µM, first compound 0.0999 µM): 7.42%
- viability, T/C [4]: 0.13%
- viability, T/C (second compound 0.316 µM, first compound 0.000999 µM): 79.9%
- viability, T/C (second compound 0.316 µM, first compound 0.00316 µM): 75.7%
- viability, T/C (second compound 0.316 µM, first compound 0.00999 µM): 74.9%
- viability, T/C [5]: 33.1%
- viability, T/C (second compound 0.316 µM, first compound 0.0999 µM): 5.76%
- viability, T/C [6]: 0.14%
- viability, T/C (second compound 1 µM, first compound 0.000999 µM): 48.6%
- viability, T/C (second compound 1 µM, first compound 0.00316 µM): 30.2%
- viability, T/C (second compound 1 µM, first compound 0.00999 µM): 33.6%
- viability, T/C [7]: 15.8%
- viability, T/C (second compound 1 µM, first compound 0.0999 µM): 2.82%
- viability, T/C [8]: 0.27%
- viability, T/C (second compound 3.16 µM, first compound 0.000999 µM): 6.7%
- viability, T/C (second compound 3.16 µM, first compound 0.00316 µM): 4.52%
- viability, T/C (second compound 3.16 µM, first compound 0.00999 µM): 7.77%
- viability, T/C [9]: 1.86%
- viability, T/C (second compound 3.16 µM, first compound 0.0999 µM): 0.59%
- viability, T/C [10]: 0.18%
- viability, T/C (second compound 10 µM, first compound 0.000999 µM): 0.17%
- viability, T/C (second compound 10 µM, first compound 0.00316 µM): 0.22%
- viability, T/C (second compound 10 µM, first compound 0.00999 µM): 0.54%
- viability, T/C [11]: 2%
- viability, T/C (second compound 10 µM, first compound 0.0999 µM): 0.38%
- viability, T/C [12]: 0.28%

Compound: O=C(c1cc(Cc2n[nH]c(=O)c3ccccc23)ccc1F)N1CCN(C(=O)C2CC2)CC1 + Cc1[nH]c2ccc(F)cc2c1-c1nc2c3cccnc3c3ncccc3c2[nH]1
- IC50 (second compound 0.0316 µM): > 10 µM
- IC50 (second compound 0.1 µM): > 10 µM
- IC50 (second compound 0.316 µM): > 10 µM
- IC50 (second compound 1 µM): > 10 µM
- IC50 (second compound 3.16 µM): 8.8 µM
- IC50 (second compound 10 µM): > 10 µM
- viability, T/C [1]: 97.2%
- viability, T/C [13]: 92.2%
- viability, T/C [2]: 91.8%
- viability, T/C [14]: 91.6%
- viability, T/C [15]: 80.6%
- viability, T/C [16]: 69.5%
- viability, T/C [3]: 108%
- viability, T/C [17]: 116%
- viability, T/C [4]: 93.4%
- viability, T/C [18]: 94.8%
- viability, T/C [19]: 92.8%
- viability, T/C [20]: 65.3%
- viability, T/C [5]: 101%
- viability, T/C [21]: 111%
- viability, T/C [6]: 101%
- viability, T/C [22]: 103%
- viability, T/C [23]: 92.8%
- viability, T/C [24]: 52.1%
- viability, T/C [7]: 109%
- viability, T/C [25]: 112%
- viability, T/C [8]: 91.5%
- viability, T/C [26]: 93.8%
- viability, T/C [27]: 90.3%
- viability, T/C [28]: 60.2%
- viability, T/C [9]: 81.6%
- viability, T/C [29]: 82.9%
- viability, T/C [10]: 72.8%
- viability, T/C [30]: 75.2%
- viability, T/C [31]: 69.6%
- viability, T/C [32]: 47.2%
- viability, T/C [11]: 105%
- viability, T/C [33]: 84.4%
- viability, T/C [12]: 96.3%
- viability, T/C [34]: 81.8%
- viability, T/C [35]: 98%
- viability, T/C [36]: 58.6%

Compound: O=c1[nH]cc(F)c(=O)[nH]1 + CN(C)c1ccc(Nc2c3ccc(NC(=O)CCN4CCCC4)cc3nc3cc(NC(=O)CCN4CCCC4)ccc23)cc1
- IC50 (second compound 0.0316 µM): 2.32 µM
- IC50 (second compound 0.1 µM): 2.44 µM
- IC50 (second compound 0.316 µM): 1.76 µM
- IC50 (second compound 1 µM): 0.0316 µM
- IC50 (second compound 3.16 µM): < 0.0316 µM
- IC50 (second compound 10 µM): < 0.0316 µM
- viability, T/C [1]: 91.6%
- viability, T/C [13]: 83.3%
- viability, T/C [2]: 101%
- viability, T/C [14]: 74.3%
- viability, T/C [15]: 43.5%
- viability, T/C [16]: 38.5%
- viability, T/C [3]: 110%
- viability, T/C [17]: 106%
- viability, T/C [4]: 103%
- viability, T/C [18]: 69.7%
- viability, T/C [19]: 46.2%
- viability, T/C [20]: 36.6%
- viability, T/C [5]: 89.4%
- viability, T/C [21]: 74.7%
- viability, T/C [6]: 83.2%
- viability, T/C [22]: 56.4%
- viability, T/C [23]: 42.1%
- viability, T/C [24]: 29.5%
- viability, T/C [7]: 53.2%
- viability, T/C [25]: 43.2%
- viability, T/C [8]: 51.1%
- viability, T/C [26]: 21.3%
- viability, T/C [27]: 29.4%
- viability, T/C [28]: 23.3%
- viability, T/C [9]: 36.6%
- viability, T/C [29]: 27.3%
- viability, T/C [10]: 35.1%
- viability, T/C [30]: 26.8%
- viability, T/C [31]: 27.2%
- viability, T/C [32]: 22.6%
- viability, T/C [11]: 7.27%
- viability, T/C [33]: 5.52%
- viability, T/C [12]: 17%
- viability, T/C [34]: 11.3%
- viability, T/C [35]: 9.24%
- viability, T/C [36]: 7.86%

Source: PubChem BioAssay AID2060497 (Molecular Pharmacology Branch, DTP, NCI, 2025)
